Assay results taken from patent US5616615A, “Enaminone esters” (priority 1995, dated 1997).

Tested on: Maximal electroshock seizures
Assay: MES maximal electroshock seizure test, mice ip
Type: in vivo
Conditions: Mus musculus, ip, 0.5 h, 100 mg/kg, 30 min; read-out: MES, animals protected/tested (converted)
Method: Three tests were performed:
1. MES--Electroshock Seizure Test
(§1) Maximal electroshock seizures are elicited with a 60-cycle alternating current of 50 mA intensity (5-7 times that necessary to elicit minimal electroshock seizures) delivered via corneal electrodes for 0.2 seconds. A drop of 0.9% saline is instilled in the eye prior to application of the electrodes in order to […].
CC1(C)CC(=O)C=C(Nc2ccc(C(F)(F)F)cc2)C1 [Compound 144] gave a responders at 100 mg/kg of 0%.
Compound CC1CC(=O)C=C(Nc2ccc(Cl)cc2)C1 (stereo not drawn) [Compound 146, 3-[(p-Chlorophenyl)amino]-5-methyl-2-cyclohexen-1-one] has a responders at 100 mg/kg of 100%.
Compound O=C1C=C(Nc2ccc(Cl)cc2)CCC1 [Compound 147] has a responders at 100 mg/kg of 100%.

Same assay, conditions: Mus musculus, ip, 0.5 h, 300 mg/kg, 30 min; read-out: MES, animals protected/tested
CC1(C)CC(=O)C=C(Nc2ccc(C(F)(F)F)cc2)C1 [Compound 144] showed a responders at 300 mg/kg of 0%.
Compound CC1CC(=O)C=C(Nc2ccc(Cl)cc2)C1 (stereo not drawn) [Compound 146, 3-[(p-Chlorophenyl)amino]-5-methyl-2-cyclohexen-1-one] has a responders at 300 mg/kg of 100%.
With O=C1C=C(Nc2ccc(Cl)cc2)CCC1 [Compound 147] the responders at 300 mg/kg was 100%.

Same assay, conditions: Mus musculus, ip, 4 h, 100 mg/kg, 4 h; read-out: MES, animals protected/tested (converted)
Work on CC1(C)CC(=O)C=C(Nc2ccc(C(F)(F)F)cc2)C1 [Compound 144] yielded a responders at 100 mg/kg of 66.7%.
Work on CC1CC(=O)C=C(Nc2ccc(Cl)cc2)C1 (stereo not drawn) [Compound 146, 3-[(p-Chlorophenyl)amino]-5-methyl-2-cyclohexen-1-one] yielded a responders at 100 mg/kg of 0%.
For O=C1C=C(Nc2ccc(Cl)cc2)CCC1 [Compound 147], the responders at 100 mg/kg was 0%.

Same assay, conditions: Mus musculus, ip, 4 h, 300 mg/kg, 4 h; read-out: MES, animals protected/tested
Work on CC1(C)CC(=O)C=C(Nc2ccc(C(F)(F)F)cc2)C1 [Compound 144] yielded a responders at 300 mg/kg of 0%.
In the case of CC1CC(=O)C=C(Nc2ccc(Cl)cc2)C1 (stereo not drawn) [Compound 146, 3-[(p-Chlorophenyl)amino]-5-methyl-2-cyclohexen-1-one], the responders at 300 mg/kg is reported as 100%.
Compound O=C1C=C(Nc2ccc(Cl)cc2)CCC1 [Compound 147] has a responders at 300 mg/kg of 100%.

Tested on: not listed separately
Assay: in vivo
Conditions: rat, po, 50 mg/kg
From the text: (§2) This oral screen is designated as phase VI.
For CC1(C)CC(=O)C=C(Nc2ccc(C(F)(F)F)cc2)C1 [Compound 144], the “Tox, animals toxic/tested” value was 0/4.
For CC1CC(=O)C=C(Nc2ccc(Cl)cc2)C1 (stereo not drawn) [Compound 146, 3-[(p-Chlorophenyl)amino]-5-methyl-2-cyclohexen-1-one], the “Tox, animals toxic/tested” value was 0/4.
For O=C1C=C(Nc2ccc(Cl)cc2)CCC1 [Compound 147], the “Tox, animals toxic/tested” value was 0/4.

Tested on: Subcutaneous Pentylenetetrazol seizure
Assay: sc Met subcutaneous pentylenetetrazol (Metrazol) seizure test, mice
Type: in vivo
Conditions: Mus musculus, sc, 0.5 h, 100 mg/kg, 30 min; read-out: scMet, animals protected/tested (converted)
Compound CC1(C)CC(=O)C=C(Nc2ccc(C(F)(F)F)cc2)C1 [Compound 144] has a responders at 100 mg/kg of 0%.
For CC1CC(=O)C=C(Nc2ccc(Cl)cc2)C1 (stereo not drawn) [Compound 146, 3-[(p-Chlorophenyl)amino]-5-methyl-2-cyclohexen-1-one], the responders at 100 mg/kg was 0%.
In the case of O=C1C=C(Nc2ccc(Cl)cc2)CCC1 [Compound 147], the responders at 100 mg/kg is reported as 0%.

Same assay, conditions: Mus musculus, sc, 0.5 h, 300 mg/kg, 30 min; read-out: scMet, animals protected/tested (converted)
CC1(C)CC(=O)C=C(Nc2ccc(C(F)(F)F)cc2)C1 [Compound 144] gave a responders at 300 mg/kg of 100%.
With CC1CC(=O)C=C(Nc2ccc(Cl)cc2)C1 (stereo not drawn) [Compound 146, 3-[(p-Chlorophenyl)amino]-5-methyl-2-cyclohexen-1-one] the responders at 300 mg/kg was 40%.
In the case of O=C1C=C(Nc2ccc(Cl)cc2)CCC1 [Compound 147], the responders at 300 mg/kg is reported as 0%.

Same assay, conditions: Mus musculus, sc, 4 h, 100 mg/kg, 4 h; read-out: scMet, animals protected/tested (converted)
Work on CC1(C)CC(=O)C=C(Nc2ccc(C(F)(F)F)cc2)C1 [Compound 144] yielded a responders at 100 mg/kg of 0%.
CC1CC(=O)C=C(Nc2ccc(Cl)cc2)C1 (stereo not drawn) [Compound 146, 3-[(p-Chlorophenyl)amino]-5-methyl-2-cyclohexen-1-one] showed a responders at 100 mg/kg of 0%.
For O=C1C=C(Nc2ccc(Cl)cc2)CCC1 [Compound 147], the responders at 100 mg/kg was 0%.

Same assay, conditions: Mus musculus, sc, 4 h, 300 mg/kg, 4 h; read-out: scMet, animals protected/tested (converted)
Work on CC1(C)CC(=O)C=C(Nc2ccc(C(F)(F)F)cc2)C1 [Compound 144] yielded a responders at 300 mg/kg of 0%.
For CC1CC(=O)C=C(Nc2ccc(Cl)cc2)C1 (stereo not drawn) [Compound 146, 3-[(p-Chlorophenyl)amino]-5-methyl-2-cyclohexen-1-one], the responders at 300 mg/kg was 0%.
For O=C1C=C(Nc2ccc(Cl)cc2)CCC1 [Compound 147], the responders at 300 mg/kg was 0%.

Tested on: Maximal electroshock seizures
Assay: Phase VI oral MES test, rats
Type: in vivo
Conditions: Rattus norvegicus, 0.5 h; oral, 50 mg/kg, 0.50 h; read-out: MES, animals protected/tested (converted)
From the text: as §1, §2
For CC1(C)CC(=O)C=C(Nc2ccc(C(F)(F)F)cc2)C1 [Compound 144], the responders at 50 mg/kg was 0%.
With CC1CC(=O)C=C(Nc2ccc(Cl)cc2)C1 (stereo not drawn) [Compound 146, 3-[(p-Chlorophenyl)amino]-5-methyl-2-cyclohexen-1-one] the responders at 50 mg/kg was 75%.
Work on O=C1C=C(Nc2ccc(Cl)cc2)CCC1 [Compound 147] yielded a responders at 50 mg/kg of 100%.

Same assay, conditions: Rattus norvegicus; oral, 50 mg/kg, 0.25 h; read-out: MES, animals protected/tested (converted)
With CC1(C)CC(=O)C=C(Nc2ccc(C(F)(F)F)cc2)C1 [Compound 144] the responders at 50 mg/kg was 0%.
CC1CC(=O)C=C(Nc2ccc(Cl)cc2)C1 (stereo not drawn) [Compound 146, 3-[(p-Chlorophenyl)amino]-5-methyl-2-cyclohexen-1-one] showed a responders at 50 mg/kg of 25%.
O=C1C=C(Nc2ccc(Cl)cc2)CCC1 [Compound 147] showed a responders at 50 mg/kg of 75%.

Same assay, conditions: Rattus norvegicus; oral, 50 mg/kg, 1.00 h; read-out: MES, animals protected/tested (converted)
Compound CC1(C)CC(=O)C=C(Nc2ccc(C(F)(F)F)cc2)C1 [Compound 144] has a responders at 50 mg/kg of 75%.
Work on CC1CC(=O)C=C(Nc2ccc(Cl)cc2)C1 (stereo not drawn) [Compound 146, 3-[(p-Chlorophenyl)amino]-5-methyl-2-cyclohexen-1-one] yielded a responders at 50 mg/kg of 100%.
Work on O=C1C=C(Nc2ccc(Cl)cc2)CCC1 [Compound 147] yielded a responders at 50 mg/kg of 50%.

Same assay, conditions: Rattus norvegicus; oral, 50 mg/kg, 2.00 h; read-out: MES, animals protected/tested (converted)
For CC1(C)CC(=O)C=C(Nc2ccc(C(F)(F)F)cc2)C1 [Compound 144], the responders at 50 mg/kg was 25%.
With CC1CC(=O)C=C(Nc2ccc(Cl)cc2)C1 (stereo not drawn) [Compound 146, 3-[(p-Chlorophenyl)amino]-5-methyl-2-cyclohexen-1-one] the responders at 50 mg/kg was 100%.
Work on O=C1C=C(Nc2ccc(Cl)cc2)CCC1 [Compound 147] yielded a responders at 50 mg/kg of 25%.

Same assay, conditions: Rattus norvegicus; oral, 50 mg/kg, 4.00 h; read-out: MES, animals protected/tested (converted)
CC1(C)CC(=O)C=C(Nc2ccc(C(F)(F)F)cc2)C1 [Compound 144] showed a responders at 50 mg/kg of 100%.
Compound CC1CC(=O)C=C(Nc2ccc(Cl)cc2)C1 (stereo not drawn) [Compound 146, 3-[(p-Chlorophenyl)amino]-5-methyl-2-cyclohexen-1-one] has a responders at 50 mg/kg of 50%.
Compound O=C1C=C(Nc2ccc(Cl)cc2)CCC1 [Compound 147] has a responders at 50 mg/kg of 25%.

Tested on: seizures
Assay: Anticonvulsant evaluation (ASP phase I / overall)
Type: in vivo, mice
Conditions: Mus musculus, ip; Phase I; read-out: ASP Classification
Method: The first phase of the ADD Program involved performing tests on male Carworth Farms #1 mice. […] Three tests were performed:
as §1
The animal is observed for 30 minutes.
In the case of CC1(C)CC(=O)C=C(Nc2ccc(C(F)(F)F)cc2)C1 [Compound 144], the minimal effective dose is reported as under 100 mg/kg.
With CC1CC(=O)C=C(Nc2ccc(Cl)cc2)C1 (stereo not drawn) [Compound 146, 3-[(p-Chlorophenyl)amino]-5-methyl-2-cyclohexen-1-one] the minimal effective dose was under 100 mg/kg.
In the case of O=C1C=C(Nc2ccc(Cl)cc2)CCC1 [Compound 147], the minimal effective dose is reported as under 100 mg/kg.
